These results are taken from patent US9023986B2, “Glucose-dependent insulinotropic peptide analogs” (Hoffmann-La Roche Inc., priority 2010, dated 2015).

In the test the target is T1, human GIPR (Homo sapiens, UniProt P48546).
T1 construct: host or cells: CHO-K1
T1 sequence (P48546 22-466): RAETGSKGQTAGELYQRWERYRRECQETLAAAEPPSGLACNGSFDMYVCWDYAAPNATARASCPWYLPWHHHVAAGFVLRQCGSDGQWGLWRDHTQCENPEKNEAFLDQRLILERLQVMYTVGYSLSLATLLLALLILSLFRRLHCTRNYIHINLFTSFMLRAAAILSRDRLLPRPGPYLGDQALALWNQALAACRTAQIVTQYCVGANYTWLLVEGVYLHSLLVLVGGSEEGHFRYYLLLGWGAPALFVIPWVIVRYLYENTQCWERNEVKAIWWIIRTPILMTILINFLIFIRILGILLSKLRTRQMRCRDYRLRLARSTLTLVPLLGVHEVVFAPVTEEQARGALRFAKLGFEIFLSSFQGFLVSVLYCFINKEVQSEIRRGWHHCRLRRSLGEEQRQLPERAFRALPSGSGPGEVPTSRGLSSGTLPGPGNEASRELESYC
Nature of the test: cAMP production in CHO-K1 cells expressing human GIPR (LANCE cAMP assay). The test is classed as cell-based. To be noted: for Emax: CHO-K1, read-out: % activation of cAMP (maximal stimulation). Here is the method: CHO—K1 cells expressing human GIPR were obtained from DiscoverX Corporation (Fremont, Calif.). The cells were cultured in Ham's F-12 nutrient media supplemented with 10% foetal bovine serum, 800 μg/ml geneticin, 300 μg/ml hydromycin, 2 mM L-glutamine, and Penicillin-streptomycin (100 units, 100 μg) at 37° C. in a 5% CO2 incubator. The cells were harvested at 90% confluence.
The cells were suspended in Ham's F-12 nutrient media to a concentration of 200,000 cells/ml. The cells were then plated in a 384 well plate at with […] of the suspension added per well. The cells were incubated overnight at 37° C. in a 5% CO2 incubator.
The activity of the compounds was determined by stimulating the CHO—K1 cells with the test compound, and measuring the levels of cAMP produced. The activity of the compounds was compared to the activity of native GIP, as GIP stimulates cAMP production. 6 μl of the test compound in stimulation buffer (990 ml Hank's Balanced Salt solution (HBSS) (1×) (Invitrogen Corp #14025-092), 10 ml Hepes buffer solution (1 mol·L) (Invitrogen Corp 15630-080), 1 g BSA (final 0.1%), and 1 ml IBMX 250 mM stock prepared fresh in DMSO (Sigma-Aldrich 15879)) were added to cells, followed by 6 μl of Alexa Fluor® 647-anti cAMP antibody (Perkin Elmer) in stimulation buffer. […] The well plate was centrifuged for 3 min at 300 rpm, and incubated at room temperature for 45 minutes. 12 μl of detection mixture (biotin cAMP and EUW8044 labeled streptavidin (Eu-SA) in cAMP Detection Buffer (Perkin Elmer)) was added and incubated for 60 min at room temperature.
The levels of cAMP produced were measured according to the detailed protocol outlined in the Perkin Elmer LANCE cAMP Assay Perkin Elmer Lance cAMP Kit manual. The activity of the compounds was compared to the activity of native GIP.
The plates are read on a TRF detection instrument, EnVision® (Perkin Elmer) (excitation at 340 nm and emission at 665 nm). The values of the cAMP signal are obtained from the standard cAMP curve and used to determine the amount of maximal stimulation, and EC50 for stimulating the cAMP signal.
Background: cAMP levels reflect the balance of adenylyl cyclase and phosphodiesterase activity.

SMILES strings stand for the structures.

As a reminder, the EC50 is the concentration giving half of the maximal effect. A higher EC50 goes with a need for much substance. As to `CC[C@H](C)[C@H](NC(=O)[C@H](CO)NC(=O)[C@H](Cc1ccc(O)cc1)NC(=O)[C@H](CC(=O)O)NC(=O)[C@H](CO)NC(=O)[C@@H](NC(=O)[C@H](Cc1ccccc1)NC(=O)[C@@H](NC(=O)CNC(=O)[C@H](CCC(=O)O)NC(=O)[C@H](C)NC(=O)[C@@H](Cc1cccc(F)c1)NC(C)=O)[C@@H](C)O)[C@@H](C)CC)C(=O)N[C@@H](C)C(=O)N[C@@H](CCSC)C(=O)N[C@@H](CC(=O)O)C(=O)N[C@@H](CCCCN)C(=O)N[C@H](C(=O)N[C@@H](Cc1c[nH]cn1)C(=O)N[C@@H](CCC(N)=O)C(=O)N[C@@H](CCC(N)=O)C(=O)N[C@@H](CC(=O)O)C(=O)N[C@@H](Cc1ccccc1)C(=O)N[C@H](C(=O)N[C@@H](CC(N)=O)C(=O)N[C@@H](Cc1c[nH]c2ccccc12)C(=O)N[C@@H](CC(C)C)C(=O)N[C@@H](CC(C)C)C(=O)N[C@@H](C)C(=O)N[C@@H](CCC(N)=O)C(=O)N[C@@H](CCCCN)C(N)=O)C(C)C)[C@@H](C)CC` [Example 16], the EC50 was 58 pM and the Emax came out at 98%.
In the same order, the values of `CC[C@H](C)[C@H](NC(=O)[C@H](CO)NC(=O)[C@H](Cc1ccc(O)cc1)NC(=O)[C@H](CC(=O)O)NC(=O)[C@H](CO)NC(=O)[C@@H](NC(=O)[C@H](Cc1ccccc1)NC(=O)[C@@H](NC(=O)CNC(=O)[C@H](CCC(=O)O)NC(=O)[C@H](C)NC(=O)[C@@H](Cc1c[nH]c2ccccc12)NC(C)=O)[C@@H](C)O)[C@@H](C)CC)C(=O)N[C@@H](C)C(=O)N[C@@H](CCSC)C(=O)N[C@@H](CC(=O)O)C(=O)N[C@@H](CCCCN)C(=O)N[C@H](C(=O)N[C@@H](Cc1c[nH]cn1)C(=O)N[C@@H](CCC(N)=O)C(=O)N[C@@H](CCC(N)=O)C(=O)N[C@@H](CC(=O)O)C(=O)N[C@@H](Cc1ccccc1)C(=O)N[C@H](C(=O)N[C@@H](CC(N)=O)C(=O)N[C@@H](Cc1c[nH]c2ccccc12)C(=O)N[C@@H](CC(C)C)C(=O)N[C@@H](CC(C)C)C(=O)N[C@@H](C)C(=O)N[C@@H](CCC(N)=O)C(=O)N[C@@H](CCCCN)C(N)=O)C(C)C)[C@@H](C)CC` [Example 10] are 100 pM and 102%.
In the same order, the values of `CC[C@H](C)[C@H](NC(=O)[C@H](CO)NC(=O)[C@H](Cc1ccc(O)cc1)NC(=O)[C@H](CC(=O)O)NC(=O)[C@H](CO)NC(=O)[C@@H](NC(=O)[C@H](Cc1ccccc1)NC(=O)[C@@H](NC(=O)CNC(=O)[C@H](CCC(=O)O)NC(=O)[C@H](C)NC(=O)[C@@H](Cc1cccnc1)NC(C)=O)[C@@H](C)O)[C@@H](C)CC)C(=O)N[C@@H](C)C(=O)N[C@@H](CCSC)C(=O)N[C@@H](CC(=O)O)C(=O)N[C@@H](CCCCN)C(=O)N[C@H](C(=O)N[C@@H](Cc1c[nH]cn1)C(=O)N[C@@H](CCC(N)=O)C(=O)N[C@@H](CCC(N)=O)C(=O)N[C@@H](CC(=O)O)C(=O)N[C@@H](Cc1ccccc1)C(=O)N[C@H](C(=O)N[C@@H](CC(N)=O)C(=O)N[C@@H](Cc1c[nH]c2ccccc12)C(=O)N[C@@H](CC(C)C)C(=O)N[C@@H](CC(C)C)C(=O)N[C@@H](C)C(=O)N[C@@H](CCC(N)=O)C(=O)N[C@@H](CCCCN)C(N)=O)C(C)C)[C@@H](C)CC` [Example 11] are 80 pM and 102%.
Turning to `CC[C@H](C)[C@H](NC(=O)[C@H](CO)NC(=O)[C@H](Cc1ccc(O)cc1)NC(=O)[C@H](CC(=O)O)NC(=O)[C@H](CO)NC(=O)[C@@H](NC(=O)[C@H](Cc1ccccc1)NC(=O)[C@@H](NC(=O)CNC(=O)[C@H](CCC(=O)O)NC(=O)[C@H](C)NC(=O)[C@@H](Cc1ccccc1)NC(C)=O)[C@@H](C)O)[C@@H](C)CC)C(=O)N[C@@H](C)C(=O)N[C@@H](CCSC)C(=O)N[C@@H](CC(=O)O)C(=O)N[C@@H](CCCCN)C(=O)N[C@H](C(=O)N[C@@H](Cc1c[nH]cn1)C(=O)N[C@@H](CCC(N)=O)C(=O)N[C@@H](CCC(N)=O)C(=O)N[C@@H](CC(=O)O)C(=O)N[C@@H](Cc1ccccc1)C(=O)N[C@H](C(=O)N[C@@H](CC(N)=O)C(=O)N[C@@H](Cc1c[nH]c2ccccc12)C(=O)N[C@@H](CC(C)C)C(=O)N[C@@H](CC(C)C)C(=O)N[C@@H](C)C(=O)N[C@@H](CCC(N)=O)C(=O)N[C@@H](CCCCN)C(N)=O)C(C)C)[C@@H](C)CC` [Example 8], the EC50 was found to be 685 pM and the Emax was 102%.
In the same order, the values of `CC[C@H](C)[C@H](NC(=O)[C@H](CO)NC(=O)[C@H](Cc1ccc(O)cc1)NC(=O)[C@H](CC(=O)O)NC(=O)[C@H](CO)NC(=O)[C@@H](NC(=O)[C@H](Cc1ccccc1)NC(=O)[C@@H](NC(=O)CNC(=O)[C@H](CCC(=O)O)NC(=O)[C@H](C)NC(=O)CCc1ccccc1)[C@@H](C)O)[C@@H](C)CC)C(=O)N[C@@H](C)C(=O)N[C@@H](CCSC)C(=O)N[C@@H](CC(=O)O)C(=O)N[C@@H](CCCCN)C(=O)N[C@H](C(=O)N[C@@H](Cc1c[nH]cn1)C(=O)N[C@@H](CCC(N)=O)C(=O)N[C@@H](CCC(N)=O)C(=O)N[C@@H](CC(=O)O)C(=O)N[C@@H](Cc1ccccc1)C(=O)N[C@H](C(=O)N[C@@H](CC(N)=O)C(=O)N[C@@H](Cc1c[nH]c2ccccc12)C(=O)N[C@@H](CC(C)C)C(=O)N[C@@H](CC(C)C)C(=O)N[C@@H](C)C(=O)N[C@@H](CCC(N)=O)C(=O)N[C@@H](CCCCN)C(N)=O)C(C)C)[C@@H](C)CC` [Example 9] are 797 pM and 101%.
In the same order, the values of `CC[C@H](C)[C@H](NC(=O)[C@H](CO)NC(=O)[C@H](Cc1ccc(O)cc1)NC(=O)[C@H](CC(=O)O)NC(=O)[C@H](CO)NC(=O)[C@@H](NC(=O)[C@H](Cc1ccccc1)NC(=O)[C@@H](NC(=O)CNC(=O)[C@H](CCC(=O)O)NC(=O)[C@H](C)NC(=O)[C@@H](Cc1cc(F)cc(F)c1)NC(C)=O)[C@@H](C)O)[C@@H](C)CC)C(=O)N[C@@H](C)C(=O)N[C@@H](CCSC)C(=O)N[C@@H](CC(=O)O)C(=O)N[C@@H](CCCCN)C(=O)N[C@H](C(=O)N[C@@H](Cc1c[nH]cn1)C(=O)N[C@@H](CCC(N)=O)C(=O)N[C@@H](CCC(N)=O)C(=O)N[C@@H](CC(=O)O)C(=O)N[C@@H](Cc1ccccc1)C(=O)N[C@H](C(=O)N[C@@H](CC(N)=O)C(=O)N[C@@H](Cc1c[nH]c2ccccc12)C(=O)N[C@@H](CC(C)C)C(=O)N[C@@H](CC(C)C)C(=O)N[C@@H](C)C(=O)N[C@@H](CCC(N)=O)C(=O)N[C@@H](CCCCN)C(N)=O)C(C)C)[C@@H](C)CC` [Example 17] are 3 pM and 99.6%.
In the same order, the values of `CC[C@H](C)[C@H](NC(=O)[C@H](CO)NC(=O)[C@H](Cc1ccc(O)cc1)NC(=O)[C@H](CC(=O)O)NC(=O)[C@H](CO)NC(=O)[C@@H](NC(=O)[C@H](Cc1ccccc1)NC(=O)[C@@H](NC(=O)CNC(=O)[C@H](CCC(=O)O)NC(=O)[C@H](C)NC(=O)[C@@H](Cc1cc(F)c(F)c(F)c1)NC(C)=O)[C@@H](C)O)[C@@H](C)CC)C(=O)N[C@@H](C)C(=O)N[C@@H](CCSC)C(=O)N[C@@H](CC(=O)O)C(=O)N[C@@H](CCCCN)C(=O)N[C@H](C(=O)N[C@@H](Cc1c[nH]cn1)C(=O)N[C@@H](CCC(N)=O)C(=O)N[C@@H](CCC(N)=O)C(=O)N[C@@H](CC(=O)O)C(=O)N[C@@H](Cc1ccccc1)C(=O)N[C@H](C(=O)N[C@@H](CC(N)=O)C(=O)N[C@@H](Cc1c[nH]c2ccccc12)C(=O)N[C@@H](CC(C)C)C(=O)N[C@@H](CC(C)C)C(=O)N[C@@H](C)C(=O)N[C@@H](CCC(N)=O)C(=O)N[C@@H](CCCCN)C(N)=O)C(C)C)[C@@H](C)CC` [Example 18] are 104 pM and 100%.
